Test results from US6211244A, “Calcium receptor-active compounds” (priority 1995, dated 2001).
Values joined by “and” are separate entries in the source; they are usually repeats but may differ in a detail not shown here. Equal entries are not always repeated. Structures can show the parent of a compound that is named as a salt. Where two headings read alike, the source gives them in different places.

Target: T1, human calcium receptor (Homo sapiens, UniProt P41180, R990G)
T1 construct: expressed in transfected cells; host or cells: HEK 293
T1 sequence (P41180 20-1078 R990G): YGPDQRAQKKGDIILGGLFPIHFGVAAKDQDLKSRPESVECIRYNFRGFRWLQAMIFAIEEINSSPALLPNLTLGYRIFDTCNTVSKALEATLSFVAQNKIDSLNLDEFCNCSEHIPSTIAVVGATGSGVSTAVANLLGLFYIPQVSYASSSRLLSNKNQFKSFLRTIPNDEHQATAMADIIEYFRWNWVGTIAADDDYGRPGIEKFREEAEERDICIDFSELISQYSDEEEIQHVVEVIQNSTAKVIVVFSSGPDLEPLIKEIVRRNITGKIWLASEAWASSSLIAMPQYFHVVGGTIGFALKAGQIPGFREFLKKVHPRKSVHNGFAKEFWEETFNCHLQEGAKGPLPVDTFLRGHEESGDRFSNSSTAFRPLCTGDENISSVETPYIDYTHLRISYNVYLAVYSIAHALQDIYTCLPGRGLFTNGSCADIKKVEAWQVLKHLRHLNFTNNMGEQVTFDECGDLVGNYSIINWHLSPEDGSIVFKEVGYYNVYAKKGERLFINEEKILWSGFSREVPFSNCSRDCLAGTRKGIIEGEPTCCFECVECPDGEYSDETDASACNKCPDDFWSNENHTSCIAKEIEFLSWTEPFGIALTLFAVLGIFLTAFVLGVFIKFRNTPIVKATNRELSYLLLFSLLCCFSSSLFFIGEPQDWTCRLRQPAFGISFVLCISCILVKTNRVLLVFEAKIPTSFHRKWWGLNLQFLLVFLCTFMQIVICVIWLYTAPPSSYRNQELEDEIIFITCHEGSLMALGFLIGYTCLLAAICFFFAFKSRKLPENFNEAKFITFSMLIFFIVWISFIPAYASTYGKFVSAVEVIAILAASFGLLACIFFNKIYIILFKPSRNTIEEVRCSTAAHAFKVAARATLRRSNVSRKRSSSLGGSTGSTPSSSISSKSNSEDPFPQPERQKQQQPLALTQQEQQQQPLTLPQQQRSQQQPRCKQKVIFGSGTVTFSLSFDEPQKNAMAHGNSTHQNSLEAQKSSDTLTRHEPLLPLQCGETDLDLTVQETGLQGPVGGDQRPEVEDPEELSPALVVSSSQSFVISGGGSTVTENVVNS
Assay: increases in [Ca^2+ ]i in HEK-293 cells expressing the human calcium receptor (fura-2 loaded HEK 293/pHuPCaR4.0 cells), % activity
Format: cell-based
Conditions: for activity at […]: HEK293

Compound | % activity (33 ng/mL) | % activity (330 ng/mL) | % activity (3300 ng/mL) [%] | % activity | activity at […] (33 ng/mL) [%] | activity at […] (330 ng/mL) [%]
COc1ccc(CNCc2cccc3ccccc23)cc1C [Compound 17Y] | 79% | 94% | 109 |  |  | 
COc1ccc(CN[C@H](C)c2cccc3ccccc23)cc1Br [Compound 24X] | 124% | 109% | 126 |  |  | 
COc1ccc(CNC(C)c2cccc(SC)c2)cc1C (centres unmarked) [Compound 24Z] | 135% | 138% | 138 |  |  | 
COc1cccc([C@@H](C)NCCCc2cccc(Cl)c2)c1 [Compound 6X] | 52% | 84% |  |  |  | 
CC(NCC=Cc1ccccc1[N+](=O)[O-])c1ccccc1 (centres unmarked) [Compound 5M] | 21% | 73% |  |  |  | 
CC(NCCCc1ccccc1Cl)c1cccc(Cl)c1 (centres unmarked) [Compound 24O] | 58% | 114% | 137 |  |  | 
COc1ccc(CNC(C)c2ccc(C(F)(F)F)cc2)cc1C (centres unmarked) [Compound 24D] | 34% | 53% | 87 |  |  | 
CC(NCCC(c1ccccc1)c1ccccc1)c1cccc(F)c1 (centres unmarked) [Compound 3B] |  | 52% |  | 15 |  | 
COc1ccc(CNC(C)c2cccc3ccccc23)cc1C (centres unmarked) [Compound 17Z] | 73% | 99% |  |  |  | 
C[C@@H](N[C@H](C)c1cccc2ccccc12)c1cccc(Cl)c1 [Compound 14Q] | 78% | 101% |  |  |  | 
COc1cccc([C@H](C)NC[C@H](C)C=Cc2ccccc2)c1 [Compound 25I, (S,R)-N-(2-methyl-4-phenybut-3-enyl)-1-(3-methoxyphenyl)ethylamine] | 114% | 113% | 119 |  |  | 
CC(NCC1CCc2ccccc2C1)c1cccc2ccccc12 (centres unmarked) [10W/10X] | 61% and 53% | 98% and 81% |  |  |  | 
COc1cccc([C@@H](C)NCc2ccc(C(C)(C)c3ccccc3)cc2)c1 [Compound 12O] | 94% | 117% | 110 |  |  | 
CC(C=Cc1ccccc1)NC(C)c1ccccc1 (mixture of isomers) [Compound 5D] | 18% | 62% |  |  |  | 
COc1cccc([C@@H](C)NCC(C)=Cc2ccccc2)c1 [Compound 25G, (R)-N-(2-methyl-3-phenylprop-2-enyl)-1-(3-methoxyphenyl)ethylamine] | 99% | 115% | 130 |  |  | 
C[C@@H](NCc1cccc(OC(F)(F)F)c1)c1cccc2ccccc12 [Compound 23E] | 102% | 113% | 137 |  |  | 
COc1ccc(CNC(C)c2ccccc2F)cc1C (centres unmarked) [Compound 23J] | 51% | 61% | 102 |  |  | 
CSc1cccc(C(C)NCCCc2ccccc2)c1 (centres unmarked) [Compound 8J, N-(3-phenylpropyl)-1-(3-thiomethylphenyl)ethylamine hydrochloride] | 77% | 104% |  |  |  | 
COc1cccc([C@@H](C)N[C@@H](C)CCc2ccccc2)c1 [Compound 21E, (S,R)-N-(4-pbenyl-2-butyl)-1-(3-methoxyphenyl)ethylamine] | 64% | 94% |  |  |  | 
COc1cccc([C@@H](C)NCc2cccc3ccccc23)c1 [Compound 25F] |  |  |  |  | 76 | 85
C[C@@H](NCc1ccc2c(c1)OCO2)c1cccc2ccccc12 [Compound 16R] | 76% | 100% |  |  |  | 
C[C@@H](NCc1ccc(C#N)cc1)c1cccc2ccccc12 [Compound 16Z] | 51% | 88% |  |  |  | 

Compound | % activity (33 ng/mL) | % activity (330 ng/mL) | % activity (3300 ng/mL) [%] | % activity | activity at […] (33 ng/mL) [%] | activity at […] (330 ng/mL) [%]
COc1ccc(CCNC(C)c2cccc3ccccc23)cc1 (centres unmarked) [Compound 15J] | 64% | 75% | 80 |  |  | 
COc1cccc([C@@H](C)NCc2cccc(OCc3ccccc3)c2)c1 [Compound 11W] | 44% | 81% |  |  |  | 
COc1cccc(C(C)NCc2ccc(OC)c(C)c2)c1 (centres unmarked) [Compound 23I] | 58% | 102% |  |  |  | 
CC(NC(C)c1cccc2ccccc12)c1ccc2c(c1)-c1ccccc1-2 (centres unmarked) [Compound 10Q] | 84% | 100% | 103 |  |  | 
CC(NC1CC1c1ccccc1)c1cccc2ccccc12 (centres unmarked) [Compound 10V] | 62% | 99% |  |  |  | 
CC(NC(C)c1cccc2ccccc12)c1ccc(Cl)c(Cl)c1 (centres unmarked) [Compound 17J] | 122% | 118% | 116 |  |  | 
COc1ccc(CNC(C)c2cccc(Br)c2)cc1C (centres unmarked) [Compound 23Q] | 98% | 114% | 122 |  |  | 
C[C@@H](NCc1ccc(F)cc1)c1cccc2ccccc12 [Compound 13T] | 53% | 90% |  |  |  | 
C[C@@H](NCC=C(c1ccccc1)c1ccccc1)c1ccccc1 [Compound 5L] | 16% | 60% |  |  |  | 
C[C@@H](NCc1ccc(C(C)(C)c2ccccc2)cc1)c1cccc2ccccc12 [Compound 12N] | 102% | 106% | 115 |  |  | 
COc1cc(OC)cc(C(C)NCCCc2ccccc2)c1 (centres unmarked) [Compound 8A] |  | 54% |  |  |  | 
CCC(NC(C)c1cccc2ccccc12)c1ccc(OC)cc1 (mixture of isomers) [Compound 17G] | 119% | 128% | 125 |  |  | 
Cc1cc(C(C)NC(C)c2cccc3ccccc23)ccc1O (centres unmarked) [Compound 17W] | 67% | 92% |  |  |  | 
CCOc1cccc([C@@H](C)NCCCc2ccccc2Cl)c1 [Compound 6T, (R)-N-[3-(2-chlorophenyl)propyl]-1-(3-ethoxyphenyl)ethylamine] | 78% | 129% | 123 |  |  | 
COc1cccc(C(C)NCc2cccc3ccccc23)c1 (centres unmarked) [Compound 3V] | 14% | 56% |  |  |  | 
CC(C)c1ccc(CN[C@H](C)c2cccc3ccccc23)cc1.Cl [Compound 11X, N-(4-Isopropylbenzyl)-(R)-1-(1-naphthyl)ethylamine hydrochloride] | 76% | 100% |  |  |  | 
CC(NC(C)c1ccc(C(C)(C)C)cc1)c1ccccc1 (mixture of isomers) [Compound 13H] | 36% | 48% | 88 |  |  | 
COc1ccc([C@@H](C)N[C@@H](C)c2cccc3ccccc23)cc1C [Compound 25W] | 42% | 69% | 95 |  |  | 
CCOc1ccc(CN[C@H](C)c2cccc3ccccc23)cc1 [Compound 16W] | 73% | 102% |  |  |  | 
COc1ccccc1C(C)NCCC(c1ccccc1)c1ccccc1 (centres unmarked) [Compound 2S] | 29% | 67% |  |  |  | 
CC(NCCC(c1ccccc1)c1ccccc1)c1cccc2ccccc12 (centres unmarked) [Compound 3U, N-(3,3-diphenylpropyl)-(1-naphthyl)ethylamine] | 57% | 89% |  |  |  | 
